US20050267145A1, “Treatment for lung cancer” (priority 2004, published 2005)

Key:
[1] = test system: A23187-Stimulated LTB4 in Rat Lung; assay: A23187-stimulated LTB4 in rat lung in situ (MDI dosing); conditions: 20 μg by single MDI activation into excised rat lung, A23187 challenge, LTB4 by RIA
Method: For the evaluation of test compounds using metered dose inhalers, dry compounds were dissolved in ethanol to a concentration of 2.33 mg/mL. 2.54 mL of this solution was added to a 20 g glass metered dose inhaler (MDI) vial and fitted with a continuous valve. The vials were cooled on dry ice, filled with 18 g of HFA 134a (DYMEL, E. I. Du Pont de Nemours and Co., Corpus Christi, Tex.), returned to dry ice, and the continuous valve was replaced with an intermittent valve that delivered 25 μL per activation. A single activation of a vial prepared as described delivered 20 μg of compound per activation. For experiments requiring different mass of compound per activation, the initial ethanol solution concentration was adjusted as necessary.
Male Sprague-Dawley rats (Charles River Laboratories, Inc. Wilmington, Mass.) weighing 250-300 grams were anesthetized with methoxyflurane in a closed container, the peritoneal cavity was exposed, and the animals were exsanguinated. The pleural cavity was exposed and the lung was removed with both the trachea and heart attached. The trachea was fitted with a cannula, secured with a ligature, and the distal end of the cannula was extended through a small hole in a #6 rubber stopper allowing for a tight seal. The lung, secured to the cannula and stopper, was then suspended in a 125 mL side arm Erlenmeyer flask filled to 100 mL with PBS warmed to 37° C. As such, access to the airways of the lung could be achieved through the cannula extending through the stopper to the outside of the flask. The flask was then placed in a 37° C. water bath.
An MDI, prepared as described above, containing test compound was fired with a single activation through the cannula and into the airways of the lung. The MDI were made to deliver 20 μg/shot, thus providing a dose of from about 0.06 mg/kg to about 0.08 mg/kg. Control lungs were similarly treated with an MDI containing propellant and co-solvent. The lungs were then incubated for 5 minutes at 37° C. Following this preincubation, 25 μL of 10 mM A23187 (Sigma Chemical Co., St. Louis, Mo.) was fired into the airways and the lung was incubated for an additional 10 minutes. Control lungs again were treated with propellant and co-solvent, only.
The lungs were then lavaged with 5 mL of ice cold PBS containing 1 mM EDTA. The recovered lavage fluid was centrifuged for 10 minutes at 150×g to sediment cells and LTB4 was quantified in the supernatant by specific RIA. The sensitivity of this assay was 155 pg/mL.

pulmonary adenomas = assay: Benzo(a)pyrene-induced pulmonary adenomas in A/J mice; format: in vivo, mouse; conditions: sixteen weeks; for Adenoma counts, groups 1H and 2H compared: high dose 425 μg/kg by inhalation
5-lipoxygenase = target: T1, 5-lipoxygenase (Mus musculus, UniProt P48999); assay: Sustained 5-lipoxygenase inhibition in vitro (LTC4 by RIA, mouse peritoneal macrophages, washout); format: cell-based; conditions: 10 μM for 30 minutes, washed, six hours washout, zymosan 50 μg/mL challenge; for inhibition at 10 µM: read-out: Sustained Inhibition, 10 μM Initial
T1 construct: Resident mouse peritoneal macrophages were obtained from male CD-1 mice; endogenous in cells; host or cells: resident peritoneal macrophages from male CD-1 mice (Charles River Laboratories)
T1 sequence (P48999 1-674): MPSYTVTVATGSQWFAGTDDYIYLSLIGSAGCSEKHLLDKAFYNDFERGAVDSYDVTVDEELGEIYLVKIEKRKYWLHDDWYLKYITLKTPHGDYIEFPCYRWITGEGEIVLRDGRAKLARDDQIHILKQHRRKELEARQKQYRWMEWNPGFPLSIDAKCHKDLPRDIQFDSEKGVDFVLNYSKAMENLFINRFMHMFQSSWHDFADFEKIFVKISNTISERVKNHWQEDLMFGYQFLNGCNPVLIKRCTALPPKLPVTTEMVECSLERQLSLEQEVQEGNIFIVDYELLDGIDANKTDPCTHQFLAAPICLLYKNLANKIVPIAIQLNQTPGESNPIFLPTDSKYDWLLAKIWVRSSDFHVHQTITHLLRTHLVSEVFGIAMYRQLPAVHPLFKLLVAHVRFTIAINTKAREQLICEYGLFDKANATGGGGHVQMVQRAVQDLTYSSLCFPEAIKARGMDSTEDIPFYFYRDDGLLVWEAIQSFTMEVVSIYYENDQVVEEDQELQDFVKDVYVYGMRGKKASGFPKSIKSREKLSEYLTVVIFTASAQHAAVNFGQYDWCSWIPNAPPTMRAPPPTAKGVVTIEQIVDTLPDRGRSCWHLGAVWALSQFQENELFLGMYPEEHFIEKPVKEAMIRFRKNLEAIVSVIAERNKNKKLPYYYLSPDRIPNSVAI
Method: LTC4 was purchased from Biomol International, L.P., Plymouth Meeting, Pa.; ^3H-LTC4 was purchased from PerkinElmer Life and Analytical Sciences, Inc., Boston, Mass.; and antibody to LTC4 was purchased from Advanced Magnetics, Inc., Cambridge, Mass.
The retrieved lavage medium was added to tissue culture dishes and incubated for two hours at 37° C. in a humidified atmosphere containing 5% CO2. Following macrophage enrichment by adherence, the culture medium was removed and the resultant cell layer was washed twice with PBS, the medium (with heparin) was replaced with 1 mL of medium (without heparin), and the cells were then incubated overnight as described above. The following morning the medium was removed and the macrophages were washed twice with 2 mL PBS. One mL of fresh medium, devoid of serum, was then added.
Test compounds were added to the macrophage cultures to achieve a final concentration of 10 μM. The final DMSO concentration was 0.1% in for each test compound. Blank and control cultures were treated with DMSO only. After 30 minutes incubation, the macrophages were washed twice with 2 mL PBS. […] This treatment described in (b) was to allow for a washout period for the test compound.

lung tumors = conditions: mice, administered orally; cited from earlier work
[2] = test system: MC-26 murine colon carcinoma cells; assay: Lung metastatic mouse model (MC-26 colon carcinoma cells i.v.), lung weight; format: in vivo; conditions: statement on Table 3
Method: A lung metastatic mouse model was used to determine the anti-tumor activity of a 5-LO inhibitor (zileuton) in combination with an IRM. 12-18 week old CDF1 female mice (Charles River Laboratories, Inc.) weighing 20-22 grams were injected in the tail intravenously with 5×10^5 MC-26 murine colon carcinoma cells. IRM2 was prepared in a 0.03M citrate buffered saline solution, pH 4.0. Zileuton was prepared in a 10% ethanol in water solution. At four hours and 24 hours after tumor challenge, mice were injected intra-peritoneally with zileuton and IRM2 as indicated in Table 3. One group of mice (Vehicle) was untreated. Fourteen days after tumor challenge, mice were sacrificed and lungs were removed and weighed.

Row | inhibition at 10 µM (5-lipoxygenase) [%] | Structure (SMILES) | Inhibition, 20 μg in situ [1] | other results
1 | 18 | CSc1ccc(NC(=O)N(O)C(C)C)cc1 [Compound 7, 1-hydroxy-1-(1-methylethyl)-3-[4-(methylthio)phenyl]urea] |  | 
2 | 12 | CCC(CC)N(O)C(=O)Nc1ccccc1 [Compound 8, 1-hydroxy-1-(1-ethylpropyl)-3-phenylurea] | 72 | 
3 | 0 | CSc1ccc(NC(=O)N(C)O)cc1 [Compound 9, 1-hydroxy-1-methyl-3-[4-(methylthio)phenyl]urea] |  | 

Second part, the molecule before the results:

Row | Structure (SMILES) | inhibition at 10 µM (5-lipoxygenase) [%] | Inhibition, 20 μg in situ [1] | other results
4 | CCC(CC)N(O)C(=O)Nc1cccc(Oc2ccccc2)c1 [Compound 1, 1-hydroxy-1-(1-ethylpropyl)-3-(3-phenoxyphenyl)urea] | 100 | 100 | Adenoma counts, groups 1H and 2H compared (pulmonary adenomas): similar
5 | CCCCCN(O)C(=O)Nc1ccc(OCCCC)cc1 [Compound 2, 3-(4-butoxyphenyl)-1-hydroxy-1-pentylurea] |  |  | Adenoma counts, groups 1H and 2H compared (pulmonary adenomas): similar
6 | O=C(Nc1ccccc1)N(O)CCCn1cccc1 [Compound 3, 1-hydroxy-1-(3-pyrrol-1-ylpropyl)-3-phenylurea] | 3 | 84 | 
7 | CCCCCN(O)C(=O)Nc1cc(OC)c(OC)c(OC)c1 [Compound 4, 1-hydroxy-1-pentyl-3-(3,4,5-trimethoxyphenyl)urea] | 24 | 84 | 
8 | CCC(CC)N(O)C(=O)Nc1ccc(Cc2ccc(NC(=O)N(O)C(CC)CC)cc2)cc1 [Compound 5] |  | 66 | Sustained Inhibition, 10 μM Initial (5-lipoxygenase): 86
9 | CCCCCN(O)C(=O)Nc1ccc(Oc2ccccc2)cc1 [Compound 6, 1-hydroxy-3-(4-phenoxyphenyl)-1-pentylurea] | 100 | 88 | 
10 | CC(c1cc2ccccc2s1)N(O)C(N)=O (stereo not drawn) [Zileuton, zileuton, reference compound] | 28 | 42 | preventing lung tumors and slowing growth and progression of adenoma to carcinoma (lung tumors): effective; effect on the number of pulmonary adenomas (pulmonary adenomas; oral, average 245 mg/kg in the diet): did not have any apparent effect; tumor growth [2]: inhibits tumor growth
